US20090069429A1 (SGP & SONS AB, priority 2006, published 2009)
“Also recorded” adds a separate entry of the source.

Experiments:
soleus muscles = conditions: 48-h T3 subcutaneously; 90 Hz continuous stimulation; cited from earlier work
[1] = tested on: fast-twitch extensor digitorum longus muscle (EDL); assay: Contractile endurance and force of isolated extensor digitorum longus muscle from rats given AKG, continuous electrical stimulation at 90 Hz; assay type: in vivo, rat
Protocol: FIG. 5 presents contracting characteristics of extensor digitorum longus muscle in uremic rats+test component (n=3) and control rats+test component (n=2) incubated in Krebs Ringer solution and uremic rats+test component (n=3) incubated in Uremic Buffer (30 min.), 90 Hz, 1 ms and <90V.
(§1) Animals were kept in a thermostatically controlled chamber, containing the equipment to measure contractile force in isolated rat skeletal muscle, i.e. a computer, analogue-digital transducer, amplifier, differential amplifier, stimulator, […] and 5% carbon dioxide.
(§2) Thermostatically controlled chamber, maintained at 30° C., contained a glass diffuser for efficient oxygenation of buffer, a mounting/stimulation block with 2 pins to fix portion of fibula in place and 2 silver stimulating electrodes.

muscle = assay: Muscle performance after oral AKG (general conclusions); assay type: in vivo, rat
Protocol: as §1, §2

[2] = tested on: slow-twitch soleus muscle; assay: Contractile endurance and force of isolated soleus muscle from rats given AKG, continuous electrical stimulation at 40 Hz; assay type: in vivo, rat
Protocol: FIG. 4 presents contracting characteristics of soleus muscles in uremic rats +test component (n=10), control rats+placebo (n=8), control rats+test component (n=4) incubated in Krebs Ringer physiological solution (30 min. incubation) and electrically stimulated at 40 Hz (32 mA, 1 ms, <90V).
as §1, §2

[3] = AKG-administered uremic rats, Krebs Ringer vs Uremic buffer incubation

SMILES | rate of fatigue of soleus muscle (soleus muscles) | endurance performance of extensor digitorum longus muscle ([1]; AKG administered uremic rats vs placebo administered uremic rats) | endurance profile of extensor digitorum longus muscle (buffer effect) [1, 3] | slowing of Rate of Force Generation ([1]; fast-twitch muscles, oral treatment 21 days or less) [%] | Maximal Isometric Force improvement ([1]; fast-twitch muscles, oral treatment 21 days or less, vs untreated controls) [%] | effect on muscle performance in terms of endurance during sustained contraction (muscle; AKG administration) | peripheral fatigue during sustained contraction at normal working frequency (muscle; oral AKG) | period within which muscle function improves (muscle; oral preparation) [days] | endurance profile of soleus muscle (buffer effect) [2, 3] | endurance of soleus muscles ([2]; control rats given AKG vs placebo, incubated in Krebs Ringer) | slowing of Rate of Force Generation ([2]; slow-twitch muscles, oral treatment 21 days or less) [%] | Maximal Isometric Force improvement ([2]; slow-twitch muscles, oral treatment 21 days or less, vs untreated controls) [%]
N[C@@H](Cc1cc(I)c(Oc2ccc(O)c(I)c2)c(I)c1)C(=O)O [T3, 3,5,3′-triiodothyronine] | rapid rate of fatigue |  |  |  |  |  |  |  |  |  |  | 
O=C(O)CCC(=O)C(=O)O [AKG, alpha-ketoglutarate] |  | improved performance | better endurance profile | ~8.5 | 28 | beneficial effect | reduce | ≤ 21 | better endurance profile | improves the endurance; also recorded: improved endurance | ~130 | 12
